According to US9949953B2, “Topical compositions comprising fipronil and permethrin and methods of use” (priority 2012, dated 2018):

Tested on: Stomoxys calcitrans
Test: Stable fly repellency and parasiticidal (diptericidal) efficacy on rats (Example 1)
Format: in vivo
Procedure: This study evaluated the effectiveness of a formulation of the invention containing fipronil and permethrin to repel and kill Stomoxys calcitrans on rats after a single administration. Rats in the treatment group (Group 2) were treated once on Day 0 with a topical formulation of the invention containing 9.2 (w/w) fipronil and 41.5% (w/w) permethrin in a solvent system containing DMDA and DGME in a ratio of 0.73:1, DMDA to DGME, to deliver a dose of 30 mg/kg permethrin and 6.7 mg/kg fipronil. Rats in Group 3 were treated with a formulation containing permethrin alone to deliver a dose of 30 mg/kg. The two treatment groups were compared with a control group treated with a solvent system placebo.
Flies are exposed to the treated rats for 1 hr., then removed. Dead flies are counted at the end of the exposure period and at 4 hr and 24 hr post-exposure. […] This finding is significant because fipronil is not known to have repellent activity.
The diptericidal efficacy of the formulations is shown in Table 1 and represented in FIG. 6. The data for repellency are shown in Table 2 and are represented in FIG. 7.

CC1(C)C(C=C(Cl)Cl)C1C(=O)OCc1cccc(Oc2ccccc2)c1 (stereo not shown) [Permethrin]
4 hr % efficacy (dead flies 4 hr post-exposure, single topical treatment Day 0): 82.0%
24 hr % efficacy (dead flies 24 hr post-exposure, single topical treatment Day 0): 74.7%
EOE % efficacy (dead flies at end of 1 hr exposure period, single topical treatment Day 0): 74.2%
% Repellency (single topical treatment Day 0, measured 24 hours after exposure): 41.2%
